Where two headings read alike, the source gives them in different places.
Assays:
Assay type in all cases: in vivo
Eleocharis kuroguwai [1] = test: Field transplant rice test, applied 9 DAT, EK; conditions: for inhibition at 375 g/ha / inhibition at 750 g/ha / inhibition at 1500 g/ha / inhibition at 3000 g/ha: Eleocharis kuroguwai, 216 h, read-out: Percent Inhibition, EK; for inhibition at 375 g/ha: 0.375 Kg/Ha; for inhibition at 750 g/ha: 0.75 Kg/Ha; for inhibition at 1500 g/ha: 1.5 Kg/Ha; for inhibition at 3000 g/ha: 3.0 Kg/Ha
Source text: (§1) In the discussion of data below, occasional reference is made to herbicide application rates symbolized as "GR15 " and "GR85 "; these rates are given in kilograms per hectare (kg/ha) which are convertible into pounds per acre (lbs/A) by dividing the kg/ha rate by 1.12.
(§2) A further guide to the effectiveness of a chemical as a selective herbicide is the "selectivity factor" ("SF") for a herbicide in given crops and weeds. The selectivity factor is a measure of the relative degree of crop safety and weed injury and is expressed in terms of the GR15 /GR85 ratio, i.e., the GR15 rate for the crop divided by the GR85 rate for the weed, both rates in kg/ha (lb/A.)
(§3) The test data in Table III for all compounds was obtained under identical test conditions. The weeds used in the tests herein have the following abbreviations in the tables: Echinochloa crus-galli (EC), Monochloria vaginalis (MV), Cyperus Serotinus (CS), Eleocharis Kuroguwai (EK) and Sagittaria trifolia (ST).
(§4) In further comparative tests, a preferred compound of this invention (Example 1) was tested in the field with prior art Compounds A-D. These tests were conducted under conditions reflecting herbicide application times generally favorable to all herbicides in the test. The timing of application of herbicides to transplant rice is very important, whether, as in some instances, prior to transplanting the rice; in other instances, at the time of transplanting or else after transplanting. Application times are conventionally referred to as "days before transplant" (DBT) or "days after transplant" ("DAT"). The field test data in Table IV was obtained from a test in which the herbicides were applied at the time of transplant, i.e., "0 DAT", with observations being made weekly up to six weeks after transplant ("WAT") beginning at two weeks after transplant; for illustrative and representative purposes, only the early, middle and late period observations, i.e., 2 WAT, 4 WAT and 6 WAT, are shown in Table IV. The data in Table IV is for rates of application common to all herbicides in the test, i.e., from 3.0 kg/ha (2.67 lb/A) down to 0.375 kg/ha (0.34 lb/A). All herbicides were applied at their actual or expected use rates, i.e., as granules containing 2.5% by weight herbicide for the compound of Example 1, Compounds B, C and D and 5.0% by weight for Compound A.
(§5) In Table V are presented field data showing the relative performance of the compound of Example 1 and Compounds A-D applied 9 DAT, with observations being made weekly from 3 WAT to 7 WAT; again, for illustrative and representative purposes, only the early, middle and late period observations are reported in Table V, the herbicide rates and concentrations of active ingredients the same as is shown in Table IV.

Echinochloa crus-galli [2] = test: Field transplant rice test, applied 0 DAT, EC; conditions: 0 h, read-out: Percent Inhibition, EC; for inhibition at 375 g/ha: 0.375 Kg/Ha; for inhibition at 750 g/ha: 0.75 Kg/Ha; for inhibition at 1500 g/ha: 1.5 Kg/Ha; for inhibition at 3000 g/ha: 3.0 Kg/Ha
Description: as §3, §4

Monochoria vaginalis = test: Field transplant rice test, applied 9 DAT, MV; conditions: for inhibition at 375 g/ha / inhibition at 750 g/ha / inhibition at 1500 g/ha / inhibition at 3000 g/ha: Pontederia vaginalis, 216 h, read-out: Percent Inhibition, MV; for inhibition at 375 g/ha: 0.375 Kg/Ha; for inhibition at 750 g/ha: 0.75 Kg/Ha; for inhibition at 1500 g/ha: 1.5 Kg/Ha; for inhibition at 3000 g/ha: 3.0 Kg/Ha
Source text: as §1, §2, §3, §4, §5

Rice = test: Field transplant rice test, applied 9 DAT, rice injury; conditions: Oryza sativa, 216 h, read-out: Percent Inhibition, Rice; for inhibition at 375 g/ha: 0.375 Kg/Ha; for inhibition at 750 g/ha: 0.75 Kg/Ha; for inhibition at 1500 g/ha: 1.5 Kg/Ha; for inhibition at 3000 g/ha: 3.0 Kg/Ha
Description: as §4, §5

Eleocharis kuroguwai [3] = test: Greenhouse transplant rice test, EK; conditions: about 3 WAT, read-out: Percent Inhibition, EK
Source text: (§6) The test procedure used in this greenhouse test is as follows: Ray silt loam top soil containing about 0.05% by weight of krillium and sifted through a […] screen is fumigated about 5-10 days prior to use. Pots are then filled with said Ray silt loam soil to a level to allow for a 1 in. (2.54 cm) flooding depth. Rice plants (Bluebelle) of 2 to 3 weeks age are transplanted to the pots and bulbs or seeds of the test weeds also planted in the pots. The pots are then flooded and the test chemical applied to the surface of the flood water. The flood water is reduced to allow for germination of the Echinochloa crus-galli (barnyardgrass) seed and subsequently reflooded and maintained in that condition. Observations of percent inhibition using a scale of 0-100% are made about 3 weeks after transplant (WAT).
as §3

Echinochloa crus-galli [4] = test: Greenhouse transplant rice test, EC; conditions: about 3 WAT, read-out: Percent Inhibition, EC
Source text: as §6, §3

Cyperus serotinus = test: Greenhouse transplant rice test, CS; conditions: about 3 WAT, read-out: Percent Inhibition, CS
Source text: as §6, §3

With `CCCOCCN(C(=O)CCl)c1c(CC)cccc1CC` [Compound D, 2',6'-diethyl-N-(n-propoxyethyl)-2-chloroacetanilide] the “selectivity factor (GR15/GR85), EK in transplant rice” value (Eleocharis kuroguwai [1]; 3 WAT) was “about 1”, the inhibition at 375 g/ha (Eleocharis kuroguwai [1]; 3 WAT) was 50% and the inhibition at 375 g/ha (Eleocharis kuroguwai [1]; 5 WAT) was 23%. For the same molecule, the inhibition at 375 g/ha (Eleocharis kuroguwai [1]; 7 WAT) was 0%, the inhibition at 750 g/ha (Eleocharis kuroguwai [1]; 3 WAT) was 45% and the inhibition at 750 g/ha (Eleocharis kuroguwai [1]; 5 WAT) was 20%. It also gave an inhibition at 750 g/ha (Eleocharis kuroguwai [1]; 7 WAT) of 0%, an inhibition at 1500 g/ha (Eleocharis kuroguwai [1]; 3 WAT) of 52% and an inhibition at 1500 g/ha (Eleocharis kuroguwai [1]; 5 WAT) of 30%. It also gave an inhibition at 1500 g/ha (Eleocharis kuroguwai [1]; 7 WAT) of 0%, an inhibition at 3000 g/ha (Eleocharis kuroguwai [1]; 3 WAT) of 84% and an inhibition at 3000 g/ha (Eleocharis kuroguwai [1]; 5 WAT) of 78%. It also gave an inhibition at 3000 g/ha (Eleocharis kuroguwai [1]; 7 WAT) of 45%, an inhibition at 375 g/ha (Echinochloa crus-galli [2]; 2 WAT) of 73% and an inhibition at 375 g/ha (Echinochloa crus-galli [2]; 4 WAT) of 88%. The inhibition at 375 g/ha (Echinochloa crus-galli [2]; 6 WAT) was 83%, the inhibition at 750 g/ha (Echinochloa crus-galli [2]; 2 WAT) was 90% and the inhibition at 750 g/ha (Echinochloa crus-galli [2]; 4 WAT) was 100%. The inhibition at 750 g/ha (Echinochloa crus-galli [2]; 6 WAT) was 100%, the inhibition at 1500 g/ha (Echinochloa crus-galli [2]; 2 WAT) was 97% and the inhibition at 1500 g/ha (Echinochloa crus-galli [2]; 4 WAT) was 98%. The inhibition at 1500 g/ha (Echinochloa crus-galli [2]; 6 WAT) was 93%, the inhibition at 3000 g/ha (Echinochloa crus-galli [2]; 2 WAT) was 99% and the inhibition at 3000 g/ha (Echinochloa crus-galli [2]; 4 WAT) was 100%. For the same molecule, the inhibition at 3000 g/ha (Echinochloa crus-galli [2]; 6 WAT) was 100%, the inhibition at 375 g/ha (Monochoria vaginalis; 3 WAT) was 95% and the inhibition at 375 g/ha (Monochoria vaginalis; 5 WAT) was 98%. For the same molecule, the inhibition at 375 g/ha (Monochoria vaginalis; 7 WAT) was 95%, the inhibition at 750 g/ha (Monochoria vaginalis; 3 WAT) was 100% and the inhibition at 750 g/ha (Monochoria vaginalis; 5 WAT) was 87%. For the same molecule, the inhibition at 750 g/ha (Monochoria vaginalis; 7 WAT) was 100%, the inhibition at 1500 g/ha (Monochoria vaginalis; 3 WAT) was 100% and the inhibition at 1500 g/ha (Monochoria vaginalis; 5 WAT) was 100%. For the same molecule, the inhibition at 1500 g/ha (Monochoria vaginalis; 7 WAT) was 100%, the inhibition at 3000 g/ha (Monochoria vaginalis; 3 WAT) was 100% and the inhibition at 3000 g/ha (Monochoria vaginalis; 5 WAT) was 100%. The inhibition at 3000 g/ha (Monochoria vaginalis; 7 WAT) was 100%, the “selectivity factor (GR15/GR85), MV in transplant rice” value (Monochoria vaginalis; between 3 WAT and 7 WAT) was 8 and the inhibition at 375 g/ha (Rice; 3 WAT) was 8%. The inhibition at 375 g/ha (Rice; 5 WAT) was 7%, the inhibition at 375 g/ha (Rice; 7 WAT) was 7% and the inhibition at 750 g/ha (Rice; 3 WAT) was 10%. For the same molecule, the inhibition at 750 g/ha (Rice; 5 WAT) was 5%, the inhibition at 750 g/ha (Rice; 7 WAT) was 2% and the inhibition at 1500 g/ha (Rice; 3 WAT) was 10%. It also gave an inhibition at 1500 g/ha (Rice; 5 WAT) of 5%, an inhibition at 1500 g/ha (Rice; 7 WAT) of 7% and an inhibition at 3000 g/ha (Rice; 3 WAT) of 15%. It also gave an inhibition at 3000 g/ha (Rice; 5 WAT) of 5% and an inhibition at 3000 g/ha (Rice; 7 WAT) of 8%.

`CCCCOc1cccc(CC)c1N(CC)C(=O)CCl` [Example 2, N-ethyl-2'-n-butoxy-6'-ethyl-2-chloroacetanilide] was tested, and the inhibition at 280 g/ha (Eleocharis kuroguwai [3]; 0.28 Kg/Ha) was 100%, the inhibition at 560 g/ha (Eleocharis kuroguwai [3]; 0.56 Kg/Ha) was 100% and the inhibition at 1120 g/ha (Eleocharis kuroguwai [3]; 1.12 Kg/Ha) was 100%. It also gave an inhibition at 2240 g/ha (Eleocharis kuroguwai [3]; 2.24 Kg/Ha) of 100%, an inhibition at 280 g/ha (Echinochloa crus-galli [4]; 0.28 Kg/Ha) of 100% and an inhibition at 560 g/ha (Echinochloa crus-galli [4]; 0.56 Kg/Ha) of 100%. For the same molecule, the inhibition at 1120 g/ha (Echinochloa crus-galli [4]; 1.12 Kg/Ha) was 100%, the inhibition at 2240 g/ha (Echinochloa crus-galli [4]; 2.24 Kg/Ha) was 100% and the inhibition at 280 g/ha (Cyperus serotinus; 0.28 Kg/Ha) was 100%. For the same molecule, the inhibition at 560 g/ha (Cyperus serotinus; 0.56 Kg/Ha) was 100%, the inhibition at 1120 g/ha (Cyperus serotinus; 1.12 Kg/Ha) was 100% and the inhibition at 2240 g/ha (Cyperus serotinus; 2.24 Kg/Ha) was 100%.

— patent US4345938A, “Herbicidal 2-haloacetanilides” (Monsanto Company, priority 1980, dated 1982)
